This is an account of results in PubChem BioAssay (NCI).

The structures appear in SMILES notation. Several values for one entry are separate records, joined by “and”; a condition that tells them apart may be missing. Identical values can stand only once.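 Values below derive from 48-hour exposures of cells grown in 96-well plates, with endpoints linearly interpolated between the two concentrations bracketing the appropriate inhibition level. At the GI50, growth is halved. At the TGI there is no net growth.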

Common to all, as to assay: NCI tumour cell line growth inhibition, 48 h
The subject of experiment [1] is 786-0 renal.
Experiment [2] deals with HOP-92 NSCLC.
Experiment [3] has as its system HS 578T breast.
For experiment [4], the system named is KM12 colon.
In experiment [5] the test system is NCI-H522 lung.
The subject of experiment [6] is SNB-19 CNS.
The test system of experiment [7] is T-47D breast.
Experiment [8] has as its system TK-10 renal.
Experiment [9] concerns UACC-257 melanoma.
The subject of experiment [10] is SR leukemia.

As to `CC(=O)c1c(O)ccc2c(C)c(C(=O)O)oc12`, the GI50 in experiment [1], in experiment [2], in [3], in experiment [4], in experiment [5] and in [6] was greater than 100 µM throughout. Moreover, the GI50 in experiment [7], in experiment [8] and in [9] was greater than 100 µM in each case. In addition, the TGI in experiment [1], in experiment [2], in experiment [3], in experiment [4], in experiment [5] and in [6] was greater than 100 µM in each case. In addition, the TGI in [7], in experiment [8] and in experiment [9] was greater than 100 µM throughout.
For `COc1ccc2cc3[n+](cc2c1OC)CCc1cc2c(cc1-3)OCO2`, the GI50 in experiment [1] is 72.7 µM; in experiment [2], 8.54 µM; in [4] it was 2.79 µM and 4.27 µM; in experiment [6], 0.831 µM; in experiment [7], 1.88 µM. In addition, the TGI was greater than 100 µM in experiment [1]; > 100 µM and 87.1 µM and 40.7 µM in experiment [3]; > 100 µM and > 77.2 µM and 145 µM in experiment [6]; > 100 µM and 71.5 µM and > 75.6 µM in [10]; 29.5 µM and 42.2 µM and > 68 µM in experiment [7]; greater than 100 µM in [8].
With `CC(C)(C)c1cn2cccc(C(=O)N3CCN(CC(=O)Nc4ccc(Cl)cc4C(=O)c4ccccc4Cl)CC3)c2n1`, the GI50 in experiment [1] was 24.4 µM; in experiment [3] it was 4.72 µM; in [4] it was 5.68 µM; in experiment [5], 12.7 µM; in experiment [6] it was 15.3 µM; in experiment [10] it was greater than 100 µM. For the same molecule, the GI50 is 5.33 µM in experiment [7], 16 µM in [8] and 3.51 µM in experiment [9]. For the same molecule, the TGI in [1] is 85.2 µM; in experiment [3] it was 19.9 µM; in experiment [4] it was 22.4 µM; in experiment [5], 52.3 µM; in [6], 54.8 µM; in [10], greater than 100 µM. Also, the values for the TGI in experiment [7], in experiment [8] and in experiment [9] were greater than 100 µM, greater than 100 µM and 23.5 µM, respectively.
For the molecule `Cc1ccc(/C=C/C(=O)c2ccc(N)cc2)c(C)c1`, the GI50 was 1.88 µM in experiment [1]; 1.96 µM in experiment [2]; 18.2 µM in experiment [3]; 4.38 µM in experiment [4]; 0.379 µM in experiment [5]; 14.4 µM in experiment [6]. Besides, the figures for the GI50 in [7], in [8] and in experiment [9] were 2.05 µM, 3.13 µM and 14.3 µM, respectively. Also, the TGI in experiment [1] stood at 3.45 µM; in [2] it was 4.43 µM; in experiment [3], 80 µM; in experiment [4], 16.8 µM; in experiment [5], 1.67 µM; in [6] it was 27.8 µM. The TGI is 4.64 µM in experiment [7], 11.9 µM in experiment [8] and 28.3 µM in experiment [9].
Consider `O=C1CSC(=S)N1Cc1cccnc1`, for which the GI50 in [1] was 3.67 µM; in experiment [3], 17 µM; in experiment [4] it was 2.22 µM; in experiment [5] it was 2.22 µM; in experiment [6], 47.8 µM; in experiment [10] it was 3.56 µM. Moreover, the GI50 in experiment [7] was 11.1 µM; in experiment [8], 2.84 µM; in experiment [9] it was 5.97 µM. Moreover, the TGI is 11.2 µM in experiment [1]; 66.1 µM in experiment [3]; 5.21 µM in experiment [4]; 5.83 µM in [5]; greater than 100 µM in experiment [6]; greater than 100 µM in experiment [10]. For the same molecule, the TGI in experiment [7] is 32.7 µM; in experiment [8], 7.14 µM; in experiment [9] it was 21.9 µM.
As to `Cn1c(=O)c2[nH]c(C3CC(=O)CC(c4nc5c([nH]4)c(=O)n(C)c(=O)n5C)N3)nc2n(C)c1=O` (configuration not stated), the TGI in experiment [1], in experiment [3], in [4], in experiment [5], in [6] and in experiment [10] was greater than 100 µM each time. Also, the TGI in experiment [7], in [8] and in experiment [9] was greater than 100 µM throughout.
Take `CO/N=C(\COc1ccc2c(c1)oc(=O)c1cc(OC)ccc12)c1ccc(F)cc1`: the GI50 is 14.3 µM in [1]; 14.4 µM in [2]; 29.9 µM in experiment [3]; 33.7 µM in experiment [4]; 13 µM in experiment [5]; 30.4 µM in [6]. For the same molecule, the GI50 is 25 µM in experiment [7], 14.7 µM in [8] and 45.5 µM in [9]. Further, the TGI is 28.7 µM in experiment [1]; 37.4 µM in experiment [2]; greater than 100 µM in experiment [3]; greater than 100 µM in [4]; 32.5 µM in experiment [5]; greater than 100 µM in experiment [6]. Moreover, the TGI was 90.3 µM in [7], 29.5 µM in experiment [8] and greater than 100 µM in experiment [9].
For `COC(=O)c1oc2c(O)c(OC)c(Br)cc2c1C`, the GI50 is 18.2 µM in [1]; 33.7 µM in [3]; 21.2 µM in experiment [4]; 37.4 µM in experiment [5]; 22.9 µM in experiment [6]; 0.354 µM in experiment [10]. Moreover, the GI50 in experiment [8] is 18.3 µM; in experiment [9], 24.5 µM. Besides, the TGI in experiment [1] is 32.4 µM; in [3], greater than 100 µM; in experiment [4], 47.6 µM; in experiment [5] it was greater than 100 µM; in experiment [6], 46.1 µM; in experiment [10], 18.2 µM. The TGI was found to be 40 µM in [8] and 99.6 µM in [9].
In the case of `CCCCCCCCCCCCSC(=NC)NC`, the GI50 was 1.88 µM in [1]; 1.39 µM in [2]; 2.41 µM in [3]; 3.06 µM in experiment [6]; 1.37 µM in experiment [10]; 2.04 µM in experiment [7]. Also, the GI50 was 1.71 µM in experiment [8] and 2.15 µM in experiment [9]. Moreover, the TGI in [1] is 3.51 µM; in experiment [2], 5.49 µM; in experiment [3], 7.07 µM; in experiment [6] it was 17.6 µM; in experiment [10], 5.32 µM; in [7], 4.77 µM. Moreover, the TGI in [8] came out at 3.49 µM; in experiment [9], 5.14 µM.
